Test results reported in US10974081B2, “Treatment and prevention of sleep disorders” (Purdue Pharma L.P., priority 2016, dated 2021).
Read-outs that look alike come from different tables or passages of the source.

Key:
[1] = In vivo renal clearance in humans; set-up: species or system human; settings: for CL renal: male, human, urine
Method: Four healthy male subjects were administered each dose. Table 25 below provides the results in the form of the mean renal clearance, mean total amount excreted unchanged ad Compound (1D), and mean percentage dose excreted unchanged.

rats [2] = tested on: rats
[3] = In vivo clearance of radiolabeled Compound (1D), rats; settings: within 48 hours of oral dosing
[4] = In vivo bioavailability after oral dosing; settings: male, Sprague-Dawley [Crl:CD(SD)], rat, plasma; 1 mg/kg oral, non-fasted; mean of multiple determinations
[5] = Free unbound compound fraction, equilibrium dialysis of rat serum; type: in vitro ADME; settings: male, Crl:CD (SD), rat, rat serum; 2 μg/mL, 24 hours dialysis at 37° C.
Method: The extent of in vitro binding of Compound (1F) or W-212393 to rat serum was determined as an assessment of the availability of free unbound compound for modulating receptor activity according to a procedure disclosed in, e.g., Example 15 of U.S. Pat. No. 9,290,488, which is hereby incorporated by reference in its entirety. Serum from rats containing a tested compound in one chamber of a dialysis cell was dialyzed with phosphate buffered saline (“PBS”) in the other chamber; thereafter, the supernatant from each chamber was analyzed for the concentration of the tested compound present. […] The final concentration of each tested compound in the serum sample was adjusted to 2 μg/mL by adding an appropriate volume of PBS. A cell suitable for equilibrium dialysis was used in the determinations. A SPECTRA/POR dialysis membrane (with molecular mass cutoff of 12,000-14,000 Da, Spectrum Laboratories, Inc., Rancho Dominguez, Calif.) separated the dialysis cell into two chambers. A 500 μL aliquot of the serum sample containing a tested compound was applied to one chamber (serum chamber) of the dialysis cell. A 500 μL aliquot of PBS was applied to the other chamber (PBS chamber) of the dialysis cell. The dialysis study was conducted in duplicate for each tested compound. After 24 hours of equilibrium dialysis at 37° C., 30 μL of liquid from the serum chamber of the dialysis cell was collected and to this was added 270 μL of fresh PBS (this combination was designated Sample “A”). Then, 270 μL of liquid from the PBS chamber of the dialysis cell was collected and to this was added 30 μL of control rat serum (i.e., rat serum never exposed to any test compound, this combination was designated Sample “B”). […] Each supernatant was analyzed by LC-MS-MS. […] Thereafter, the percentage of free unbound tested compound was calculated from the ratio of the tested compound amount determined from Sample B divided by the sum of the tested compound amounts determined from Sample A and Sample B.

rats [6] = settings: by suppression of rhythmic firing of SCN neurons; cited from earlier work
in vivo = settings: male, Crl, CD(SD), rat, brain homogenate and plasma, iv, 0.5 mg/kg
rats [7] = experiment: In vivo functional observational battery (FOB); settings: for Behavior: 1 mg/kg
[8] = 3 mg/kg, 0.5 h after administration
[9] = 3 mg/kg, 1 h after administration
[10] = 3 mg/kg, 2 h after administration
[11] = 3 mg/kg, 4 h after administration
[12] = 3 mg/kg, 6 h after administration
[13] = 300 mg/kg, 0.5 h after administration
[14] = 300 mg/kg, 1 h after administration
[15] = 300 mg/kg, 2 h after administration
[16] = 300 mg/kg, 4 h after administration
[17] = 300 mg/kg, 6 h after administration

Compound: O=C(O)c1nc2ccccc2n([C@H]2C[C@H]3CCC[C@@H](C2)N3C2CC3CCCC(C3)C2)c1=O (some centres unmarked) [Compound (1D)]
- absorption from the gastrointestinal tract ([1]; 3 mg oral dose, aqueous suspension): essentially completely absorbed
- Mean % Dose Excreted Unchanged ([1]; 3.0 mg single oral dose): 89%
- Mean Total Amount Excreted Unchanged ([1]; 3.0 mg single oral dose): 2.66 mg
- Mean % Dose Excreted Unchanged ([1]; 10 mg single oral dose): 70%
- Mean Total Amount Excreted Unchanged ([1]; 10 mg single oral dose): 6.95 mg
- Mean % Dose Excreted Unchanged ([1]; 30 mg single oral dose): 28%
- Mean Total Amount Excreted Unchanged ([1]; 30 mg single oral dose): 8.37 mg
- renal elimination mechanism ([1]; in addition to glomerular filtration): active renal tubular secretion
- CL renal ([1]; 3.0 mg single oral dose): 275 mL/min
- CL renal ([1]; 10 mg single oral dose): 266 mL/min
- CL renal ([1]; 30 mg single oral dose): 270 mL/min
- excretion in human urine ([1]; single oral doses 3, 10, 30 mg): excreted largely unchanged
- overall sleep effect (rats [2]; 30 mg/kg/day oral): significant sleep-enhancing effects
- tachyphylaxis over the seven day period (rats [2]; 30 mg/kg/day oral for 7 days): minimal tachyphylaxis
- percentage of time spent in wakefulness (rats [2]; 30 mg/kg/day oral, Day 1, 1 hour block at 4 hours after dosing (FIG. 5A)): about 52%
- percentage of time spent in NREM sleep (rats [2]; 30 mg/kg/day oral, Day 1, 1 hour block at 4 hours after dosing (FIG. 5C)): about 41%
- percentage of time spent in NREM sleep (rats [2]; 30 mg/kg/day oral, Day 1, 1 hour block at 5 hours after dosing (FIG. 5C)): ~54%
- percentage of time spent in REM sleep (rats [2]; 30 mg/kg/day oral, Day 1, 1 hour block at 7 hours after dosing (FIG. 5B)): about 2.5%
- total amount of wakefulness (rats [2]; 30 mg/kg/day oral, Day 1, 3 hour block, 3 to 6 hours after dosing (FIG. 6A)): about 47%
- total amount of NREM sleep (rats [2]; 30 mg/kg/day oral, Day 1, 3 hour block, 3 to 6 hours after dosing (FIG. 6C)): about 46%
- effect on percentage of time spent in REM sleep (rats [2]; 30 mg/kg/day oral, Day 1, 3 hour blocks (FIG. 6B)): no significant effects
- effect on percentage of time spent in REM sleep (rats [2]; 30 mg/kg/day oral, Day 4 (FIG. 7B, 8B)): no significant effects
- total amount of wakefulness (rats [2]; 30 mg/kg/day oral, Day 4, 3 to 6 hours after dosing (FIG. 8A)): about 55%
- total amount of NREM sleep (rats [2]; 30 mg/kg/day oral, Day 4, 3 to 6 hours after dosing (FIG. 8C)): about 41%
- percentage of time spent in NREM sleep (rats [2]; 30 mg/kg/day oral, Day 4, 1 hour block at 4 hours after dosing (FIG. 7C)): about 42%
- effect on percentage of time spent in REM sleep (rats [2]; 30 mg/kg/day oral, Day 7 (FIG. 9B, 10B)): no significant effects
- percentage of time spent in wakefulness versus vehicle (rats [2]; 30 mg/kg/day oral, Day 7, lights-out period (FIG. 9A)): decreasing tendency
- percentage of time spent in NREM sleep versus vehicle (rats [2]; 30 mg/kg/day oral, Day 7, lights-out period (FIG. 9C)): increased tendency
- effect on time spent in REM sleep (rats [2]; Day 8 (no dosing) after 30 mg/kg/day for 7 days (FIG. 11B)): no effect
- percentage of time spent in wakefulness versus vehicle (rats [2]; Day 8 (no dosing) after 30 mg/kg/day for 7 days, at 27, 35, and 46 hours (FIG. 11A)): significantly increased
- percentage of time spent in NREM sleep versus vehicle (rats [2]; Day 8 (no dosing) after 30 mg/kg/day for 7 days, at 27, 35, and 46 hours (FIG. 11C)): significantly decreased
- Average % Elimination, Fecal ([3]; Rat (female)): 27.9%
- Average % Elimination, Fecal + Urinary ([3]; Rat (female)): 94.7%
- Average % Elimination, Urinary ([3]; Rat (female)): 66.8%
- Average % Elimination, Fecal ([3]; Rat (male)): 41.6%
- Average % Elimination, Fecal + Urinary ([3]; Rat (male)): 96.0%
- Average % Elimination, Urinary ([3]; Rat (male)): 54.4%

Compound: CNC(=O)Cn1c(=O)n(C2CCN([C@@H]3Cc4cccc5cccc3c45)CC2)c2ccccc21 [Compound W-212393]
- bioavailability [4]: 2.1%
- fraction unbound at 24 h, 2 μg/mL [5]: < 0.001
- effect on circadian body temperature rhythm (rats [6]): induced a phase advance
- Kp at 0.5 h (in vivo): 0.5
- Behavior (rats [7]; 0.5 h after administration): N
- Behavior (rats [7]; 1 h after administration): N
- Behavior (rats [7]; 2 h after administration): N
- Behavior (rats [7]; 4 h after administration): N
- Behavior (rats [7]; 6 h after administration): N
- Biting behavior (rats [7]; [8]): N
- Hvpoactivity (rats [7]; [8]): N
- Jumping (rats [7]; [8]): N
- Biting behavior (rats [7]; [9]): 1 of 6
- Hvpoactivity (rats [7]; [9]): 6 of 6
- Jumping (rats [7]; [9]): 3 of 6
- Biting behavior (rats [7]; [10]): N
- Hvpoactivity (rats [7]; [10]): N
- Jumping (rats [7]; [10]): 2 of 6
- Biting behavior (rats [7]; [11]): N
- Hvpoactivity (rats [7]; [11]): N
- Jumping (rats [7]; [11]): N
- Biting behavior (rats [7]; [12]): N
- Hvpoactivity (rats [7]; [12]): N
- Jumping (rats [7]; [12]): N
- Abdominal position/side lying position (rats [7]; [13]): 6 of 6
- Biting behavior (rats [7]; [13]): 3 of 6
- Decreased muscle tone (rats [7]; [13]): 6 of 6
- Jumping (rats [7]; [13]): 2 of 6
- Loss of auricular reflex/righting reflex (rats [7]; [13]): 6 of 6
- Loss of flexed or extension reflex (rats [7]; [13]): 6 of 6
- Loss of pain reaction (rats [7]; [13]): 6 of 6
- Respiratory irregularity (rats [7]; [13]): 6 of 6
- Abdominal position/side lying position (rats [7]; [14]): 6 of 6
- Biting behavior (rats [7]; [14]): N
- Decreased muscle tone (rats [7]; [14]): 6 of 6
- Jumping (rats [7]; [14]): N
- Loss of auricular reflex/righting reflex (rats [7]; [14]): 6 of 6
- Loss of flexed or extension reflex (rats [7]; [14]): 6 of 6
- Loss of pain reaction (rats [7]; [14]): 6 of 6
- Respiratory irregularity (rats [7]; [14]): 6 of 6
- Abdominal position/side lying position (rats [7]; [15]): 6 of 6
- Biting behavior (rats [7]; [15]): N
- Decreased muscle tone (rats [7]; [15]): 6 of 6
- Jumping (rats [7]; [15]): N
- Loss of auricular reflex/righting reflex (rats [7]; [15]): 6 of 6
- Loss of flexed or extension reflex (rats [7]; [15]): 6 of 6
- Loss of pain reaction (rats [7]; [15]): 6 of 6
- Respiratory irregularity (rats [7]; [15]): 6 of 6
- Abdominal position/side lying position (rats [7]; [16]): 6 of 6
- Biting behavior (rats [7]; [16]): N
- Decreased muscle tone (rats [7]; [16]): 6 of 6
- Jumping (rats [7]; [16]): N
- Loss of auricular reflex/righting reflex (rats [7]; [16]): 6 of 6
- Loss of flexed or extension reflex (rats [7]; [16]): 6 of 6
- Loss of pain reaction (rats [7]; [16]): 6 of 6
- Respiratory irregularity (rats [7]; [16]): 6 of 6
- Abdominal position/side lying position (rats [7]; [17]): 6 of 6
- Biting behavior (rats [7]; [17]): N
- Decreased muscle tone (rats [7]; [17]): 6 of 6
- Jumping (rats [7]; [17]): N
- Loss of auricular reflex/righting reflex (rats [7]; [17]): 6 of 6
- Loss of flexed or extension reflex (rats [7]; [17]): 6 of 6
- Loss of pain reaction (rats [7]; [17]): 6 of 6
- Respiratory irregularity (rats [7]; [17]): 6 of 6
